Biological target: Sucrase-isomaltase, intestinal (Homo sapiens, UniProt P14410)
Assay: Inhibition of alpha-glucosidase by enzyme inhibition assay

Chain of Sucrase-isomaltase, intestinal (P14410 2-1007 limits assumed): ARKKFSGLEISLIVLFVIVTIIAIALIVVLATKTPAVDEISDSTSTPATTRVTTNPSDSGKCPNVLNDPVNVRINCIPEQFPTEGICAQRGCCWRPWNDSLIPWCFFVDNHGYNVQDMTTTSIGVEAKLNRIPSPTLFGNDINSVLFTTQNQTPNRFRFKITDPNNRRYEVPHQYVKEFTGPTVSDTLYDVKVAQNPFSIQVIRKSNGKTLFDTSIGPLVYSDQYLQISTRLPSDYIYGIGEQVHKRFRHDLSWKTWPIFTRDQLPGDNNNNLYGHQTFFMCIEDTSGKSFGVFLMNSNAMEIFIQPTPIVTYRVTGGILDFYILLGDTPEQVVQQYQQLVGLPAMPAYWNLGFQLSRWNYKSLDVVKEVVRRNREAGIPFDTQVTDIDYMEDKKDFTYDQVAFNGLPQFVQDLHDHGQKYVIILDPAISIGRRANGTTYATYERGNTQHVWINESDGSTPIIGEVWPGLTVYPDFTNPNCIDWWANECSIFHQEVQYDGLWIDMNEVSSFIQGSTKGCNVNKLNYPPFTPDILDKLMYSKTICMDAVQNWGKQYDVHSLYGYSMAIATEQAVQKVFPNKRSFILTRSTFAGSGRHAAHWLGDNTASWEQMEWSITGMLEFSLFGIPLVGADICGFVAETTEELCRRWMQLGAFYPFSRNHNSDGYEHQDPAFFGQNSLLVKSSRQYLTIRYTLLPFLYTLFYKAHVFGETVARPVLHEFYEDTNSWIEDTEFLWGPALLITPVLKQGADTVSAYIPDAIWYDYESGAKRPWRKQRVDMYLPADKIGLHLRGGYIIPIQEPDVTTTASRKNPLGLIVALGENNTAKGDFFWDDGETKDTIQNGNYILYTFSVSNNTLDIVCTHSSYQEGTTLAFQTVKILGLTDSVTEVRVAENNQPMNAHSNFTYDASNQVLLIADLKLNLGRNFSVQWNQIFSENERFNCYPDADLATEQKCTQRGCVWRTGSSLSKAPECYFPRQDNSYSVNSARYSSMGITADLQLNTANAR
Chain of Sucrase-isomaltase, intestinal (P14410 1008-1827 limits assumed): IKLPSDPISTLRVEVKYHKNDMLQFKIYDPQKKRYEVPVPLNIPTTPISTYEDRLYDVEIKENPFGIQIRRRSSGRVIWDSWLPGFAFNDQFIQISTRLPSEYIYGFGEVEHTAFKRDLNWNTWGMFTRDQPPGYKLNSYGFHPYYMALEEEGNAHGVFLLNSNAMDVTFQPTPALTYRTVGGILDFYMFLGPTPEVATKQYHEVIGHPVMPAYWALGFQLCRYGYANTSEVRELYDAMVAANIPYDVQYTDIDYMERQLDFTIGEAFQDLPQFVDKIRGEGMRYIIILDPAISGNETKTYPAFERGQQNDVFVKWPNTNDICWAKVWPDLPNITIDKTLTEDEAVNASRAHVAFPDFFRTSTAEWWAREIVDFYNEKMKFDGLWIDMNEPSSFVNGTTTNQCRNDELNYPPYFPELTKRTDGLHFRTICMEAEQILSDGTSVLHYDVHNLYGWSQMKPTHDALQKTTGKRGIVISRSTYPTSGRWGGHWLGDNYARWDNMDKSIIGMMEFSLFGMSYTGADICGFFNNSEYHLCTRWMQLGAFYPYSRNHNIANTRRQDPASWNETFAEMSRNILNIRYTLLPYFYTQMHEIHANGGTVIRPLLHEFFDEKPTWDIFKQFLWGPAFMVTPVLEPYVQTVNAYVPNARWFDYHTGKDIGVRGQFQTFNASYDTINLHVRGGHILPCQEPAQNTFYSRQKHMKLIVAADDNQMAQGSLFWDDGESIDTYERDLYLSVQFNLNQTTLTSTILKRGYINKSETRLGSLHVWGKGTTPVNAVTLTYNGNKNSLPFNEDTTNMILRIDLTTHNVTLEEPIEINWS

Molecule `CC[C@H](C)[C@@H]1NC(=O)[C@H](Cc2ccccc2)N2C(=O)C[C@H](NC(=O)[C@H](Cc3ccccc3)NC(=O)CNC(=O)[C@@H]3CCCN3C(=O)[C@H](CC(C)C)NC1=O)C2=O` [GYPSOPHIN] has an IC50 of 305 µM.

— ChEMBL document CHEMBL1146207, “Gypsophin: a novel alpha-glucosidase inhibitory cyclic peptide from the roots of Gypsophila oldhamiana” (Bioorg Med Chem Lett, 2007)
